Laboratory results from patent publication US20140155589A1 (priority 2011, published 2014).
Like-named read-outs stand apart in the source and are kept apart here.

Tested on: Pseudomonas aeruginosa (PA 01 strain)
Details: for Amount of pyocyanine produced per viable bacterial count Relative value (%): relative to control without compound; for Viable bacterial count: shake culture 37° C. 48 hours; for viable bacterial count compared with control: summary of Table 12; for amount of pyocyanine produced per viable bacterial count compared with control: summary of Table 13
[1] = Concentration of compound added 10 mM
[2] = Concentration of compound added 20 mM
[3] = Concentration of compound added 25 mM

| Structure (SMILES) | Amount of pyocyanine produced per viable bacterial count Relative value (%) [1] [%] | Viable bacterial count [1] [mL⁻¹] | Amount of pyocyanine produced per viable bacterial count Relative value (%) [2] [%] | Viable bacterial count [2] [mL⁻¹] | Amount of pyocyanine produced per viable bacterial count Relative value (%) [3] [%] | Viable bacterial count [3] [mL⁻¹] | viable bacterial count compared with control | amount of pyocyanine produced per viable bacterial count compared with control |
| --- | --- | --- | --- | --- | --- | --- | --- | --- |
| C=CC(=O)O [Acrylic acid] | 250.1 | 1.09e+09 | 201.8 | 9.4e+08 | 233.1 | 8.4e+08 | almost no difference | larger than that in the control |
| O=P(O)(O)O [Phosphoric acid] | 118 | 1.6e+09 | 105.8 | 1.56e+09 | 107.6 | 1.49e+09 | almost no difference | not so different |
| O=P(O)(O)OP(=O)(O)OP(=O)(O)O [Triphosphoric acid] | 40.3 | 1.5e+09 | 11.5 | 1.5e+09 | 5.4 | 1.52e+09 | almost no difference | significantly lower |
